Laboratory results published in publication PMC4459817, “Vasculotide reduces endothelial permeability and tumor cell extravasation in the absence of binding to or agonistic activation of Tie2” (EMBO Molecular Medicine, 2015).
“Also recorded” adds a separate entry of the source.

What was measured:
Assay type in all cases: in vivo, human LM2-4luc cells in CB-17 SCID mice
[1] = tested on: LM2-4luc lymphatic metastases in SCID mice; test: experimental LM2-4luc lymphatic metastasis model (IV); conditions: n = 12; for progression of lymphatic metastases (bioluminescence): VT 250 ng/2d, SU pretreatment, Kruskal–Wallis, Fig2F–H
From the text: (§1) (C and G) Photographs of typical metastases in the lungs and caudal lymphatics, respectively. […] Geometric means ± 95%CI are depicted in (D and H); P values were derived by one-way ANOVA (D) and Kruskal–Wallis test (H). […] TEXT PRINTED IN THE PICTURE: (A) Vasculotide (VT): Hazard ratio = 0.13 (95% CI, 0.03 to 0.63) | (A) SU+VT: Hazard ratio = 0.19 (95% CI, 0.04 to 0.81) DOUBTS OF THE COPYIST ABOUT THIS PICTURE: Vasculotide (VT), Hazard ratio: small print; 0.13 could be 0.15 or 0.18, and the CI limits 0.03 and 0.63 are uncertain in the digits 3/5/6/8 / SU+VT, Hazard ratio: small print; 0.19 could be 0.18 or 0.16, and the CI limits 0.04 and 0.81 are uncertain in the digits / Panel A: each hazard ratio is printed under a pair of legend entries (Vehicle / Vasculotide (VT), and Sunitinib (SU) / SU+VT). Assigning it to the VT-treated arm of each pair is my assumption.
In vivo experiments were performed in strict accordance with protocols approved by the Sunnybrook Research Institute Animal Care Committee, accredited by the Canadian Council of Animal Care. All surgical, imaging, and euthanasia procedures were performed under inhaled isoflurane anesthesia. Experimental metastasis models involved injections of 10^6 tumor cells, suspended in 200 μl serum-free DMEM, into the mouse tail vein. LM2-4^luc implantations were performed on 6 to 8-week-old female CB-17 SCID mice (Charles River Canada). […]
(§2) For in vivo BI: Mice were injected intraperitoneally with 150mg/kg luciferin (Promega) 10 minutes prior to and anesthetized with isofluorane just before luminescent pseudocolor imaging (uniform settings: CCD camera locked at -105 °C, exposure=60s, f/1, subject size=1.5cm, bin=8, FOV=23.2cm, full image correction) using the IVIS 200 Imaging System (Caliper/PerkinElmer). Using the Living Image software (v2.50.1, Xenogen), weekly images were analyzed under uniform color range on grayscale photographic overlay. Total fluxes (photons/sec) were quantified within consistent regions of interest and statistically compared ideally at a timepoint before any deaths have occurred. […]

[2] = tested on: residual and metastatic LM2-4luc disease after resection; test: orthotopic LM2-4luc xenografts with surgical resection of primary tumor (adjuvant setting)
From the text: A second orthotopic implantation experiment involved surgical resection of primary LM2-4^luc tumors (∽400 mm^3) at 17DPI (Fig6) to model post-operative metastases arising from minimal residual disease (MRD). MRD includes the regrowth of incompletely resected mammary tumors, as well as circulating or disseminated tumor cells released from primary tumors prior to or at the time of surgical resection. VT was initiated 6 days prior to surgery and maintained chronically, while adjuvant SU (1-week or 3-week 60 mg/kg/day) treatments were initiated 1 day post-surgery (Fig6A).
(§3) In vivo experiments were performed in strict accordance with protocols approved by the Sunnybrook Research Institute Animal Care Committee, accredited by the Canadian Council of Animal Care. All surgical, imaging, and euthanasia procedures were performed under inhaled isoflurane anesthesia. Experimental metastasis models involved injections of 10^6 tumor cells, suspended in 200 μl serum-free DMEM, into the mouse tail vein. LM2-4^luc implantations were performed on 6 to 8-week-old female CB-17 SCID mice (Charles River Canada). HT29^luc implantations were performed on 19- to 20-week-old male and 11- to 12-week-old female YFP-SCID mice (bred in-house). SN12^luc implantations were performed on 9-week-old male YFP-SCID mice. Spontaneous metastasis models involved orthotopic implantations of 2 × 10^6 LM2-4^luc cells/50 μl serum-free DMEM in the right inguinal mammary fat pads of 6-week-old female CB-17 SCID mice.
(§4) Sunitinib malate (SU), from Pfizer or LC Laboratories, and its vehicle were formulated as described before (Ebos et al, [2009]). SU was administered by oral gavage (PO), once daily, at a dose of 60 mg/kg mouse weight. Vasculotide (VT): VT synthesized at the Sunnybrook Research Institute (Toronto, ON, Canada) was used in experiments described in Fig2(A–D) and Supplementary Fig S5(A and B). VT synthesized by American Peptide (Sunnyvale, CA, USA) was used in experiments described in Fig5. VT synthesized by Bachem UK Ltd was used in experiments described in Figs1, 2(E–H), 3, 4, 6–9, Supplementary Figs S2, and S5(C and D). Lyophilized product was reconstituted in PBS to 500 μg/500 μl stock aliquots and stored at −80°C. As needed, stock aliquots were diluted with PBS to a 250 ng/50 μl working concentration and stored in 0.4–1 ml aliquots at −80°C. VT (at a standard dose of 250 ng/mouse) or its vehicle (PBS) was administered to mice by intraperitoneal (IP) injections every other day.
(§5) 5. Bioluminescence imaging (BI) of tumor burden
For in vivo BI: Mice were injected intraperitoneally with 150mg/kg luciferin (Promega) 10 minutes prior to and anesthetized with isofluorane just before luminescent pseudocolor imaging (uniform settings: CCD camera locked at -105 °C, exposure=60s, f/1, subject size=1.5cm, bin=8, FOV=23.2cm, full image correction) using the IVIS 200 Imaging System (Caliper/PerkinElmer). Using the Living Image software (v2.50.1, Xenogen), weekly images were analyzed under uniform color range on grayscale photographic overlay. Total fluxes (photons/sec) were quantified within consistent regions of interest and statistically compared ideally at a timepoint before any deaths have occurred.
For ex vivo BI: Mice were sacrificed at 7 mins after luciferin injections, then organs of interest were dissected and individually placed within 24-well plates for imaging at 10 min post-luciferin injection.
6. Immunohistochemical (IHC) analysis of lung metastases […]

[3] = tested on: LM2-4luc lung metastases in SCID mice; test: experimental LM2-4luc lung metastasis model (IV); conditions: for lung metastases by in vivo bioluminescent imaging: 24DPI, SU 60 mg/kg/day pretreatment, one-way ANOVA, Fig2B–D
From the text: as §1, §3, §4, §5, §2

Row | Compound | progression of lymphatic metastases (bioluminescence) ([1]; listed as SU) | thoracic metastases benefit ([2]; 10 days after discontinuation of 1-week SU, Fig6C) | abdominal tumor growth vs. thoracic metastatic dissemination ([2]; adjuvant SU, Fig6C, D) | lung metastases by in vivo bioluminescent imaging ([3]; VT 250 ng/2d, listed as SU) | progression of lymphatic metastases (bioluminescence) [1] | survival rates ([1]; VT, Fig2E, listed as VT) | tumor bioluminescence, VT combined with 1-wk SU ([2]; Fig6C and D) | survival advantage ([2]; VT monotherapy, Plog-rank = 0.42, Fig6A) | thoracic metastatic dissemination vs. abdominal tumor growth ([2]; thoracic P = 0.04, abdominal P > 0.05 for VT, Fig6C, D) | lung metastases by in vivo bioluminescent imaging ([3]; VT 250 ng/2d, listed as VT) | confirmatory repeats: VT trends on lung metastases and survival ([3]; Supplementary Fig S5) | survival ([3]; VT 250 ng/2d, with or without SU 60 mg/kg/day pretreatment, n = 5–6, Fig2A, listed as VT) | extension of median survival ([3]; VT 250 ng/2d IP monotherapy, n = 5–6, Fig2A)
1 | CCN(CC)CCNC(=O)c1c(C)[nH]c(/C=C2\C(=O)Nc3ccc(F)cc32)c1C [sunitinib, reference compound] | did not similarly promote lymphatic metastases; also recorded: did not accelerate their progression | no benefit was observed with respect to thoracic metastases | more effective at inhibiting abdominal tumor growth (Fig6D) than thoracic metastatic dissemination | promoted lung metastases; also recorded: preferentially accelerated experimental lung metastasis, but not lymphatic metastasis | – | – | – | – | – | – | – | – | –
2 | CHHHRHSF [Vasculotide, 4-armed maleimide-functionalized polyethylene glycol (PEG) backbone to link together four cysteine-capped T7 peptides, that is, CHHHRHSF] | – | – | – | – | no significant effect on survival rates (Fig2E) or the progression of lymphatic metastases | no significant effect on survival rates | lowered tumor bioluminescence to a similar extent as 3-wk SU monotherapy | not statistically significant | more effective at inhibiting thoracic metastatic dissemination (Fig6C, P = 0.04) than abdominal tumor growth (Fig6D, P > 0.05) | trend of reduced lung metastases; also recorded: effectively suppressing SU-induced promotion of lung metastases, as seen by IVBI (P < 0.05 | The same trends were reproduced | significant survival benefit (P = 0.01); also recorded: prolonged median survival | ~20%
